Measurements taken from patent publication US20090061416A1, “Surfaces and methods for biosensor cellular assays” (priority 2007, published 2009).

How the values were obtained:
CHO-KCNQ cells = test: ATP-induced DMR signals of CHO-KCNQ cells on RWG biosensor; assay type: cell-based, Chinese hamster
Procedure: Referring to the Figures, FIGS. 1A and 1B show cross-sectional configurations of two examples of RWG biosensors used for living cell sensing. In FIG. 1A a cell (10) is directly cultured onto the unmodified or bare surface of the waveguide thin film (15) of a RWG biosensor (18) having a waveguide grating atop a substrate. In FIG. 1B a cell (10) is cultured onto the surface of an inorganic thin film (19) which has been previously deposited onto the surface of the waveguide thin film (15). Here a thin film of silicon oxide of about 1 nm to about 5 nm is directly deposited onto the surface of a waveguide thin film of niobium oxide by vapor deposition method. Each biosensor associated cell has an approximate penetration depth (20). […] CHO-KCNQ is an engineered CHO cell having over-expressed a potassium ion channel KCNQ2. FIGS. 2A and 2B compare the ATP-induced DMR signals, response units versus time, of CHO-KCNQ cells: The FIG. 2A cells were cultured on an unmodified or bare niobia surface of the waveguide thin film of a Corning® Epic™ RWG biosensor; and FIG. 2B cells were cultured on a biosensor having, for example, a discontinuous thin film modified waveguide surface of silicon dioxide particles. […]

[1] = test system: endogenous P2Y receptors in HEK 293 cells; test: ATP-induced DMR signals of HEK293 cells on coated RWG biosensor surfaces; assay type: cell-based, human
Source text: Three surface densities were individually prepared by slow evaporation of 0.0015%, 0.1% and 1.5 weight % gelatin solutions, as described above, covering the biosensor surfaces. The resultant respective gelatin surfaces were referred to as low-, medium-, and high-density gelatin surfaces, respectively. HEK293 cells were separately cultured onto these surfaces.
P2Y receptors belong to the family of G protein-coupled receptors. HEK 293 cells endogenously express several isoforms of P2Y receptors. […] The arrow (540) indicates when the stimulus, an ATP solution, was introduced.
FIGS. 6A and 6B show the reproducibility and robustness of a cell assay of the disclosure using HEK293 cells that were cultured on a low-density gelatin-coated 384-well Epic™ biosensor microplate. A 10 micromolar ATP solution was added to selected well of column 15 of the microplate. The ATP-induced DMR response signals within one column (16 wells) were recorded in real time in seconds and plotted in FIG. 6A. The amplitudes of the initial positive DMR (P-DMR) event (wavelength shift) of the ATP-induced DMR signals were plotted as a function of well numbers 1-16 in FIG. 6B. The assay Coefficient of Variability (CV), or reproducibility, was about 4%, indicating a relatively high reproducibility, with an average signal of 193 picometers (pm), and a standard deviation of 8 pm.
To covalently couple RGD-like peptides to the biosensor surface, the biosensor was coated sequentially with a thin layer of silicon oxide (about 3 nm), aminopropylsilane (about 1-3 nm), poly(ethylene-alt-maleic anhydride) (EMA) (forming polymeric clusters), and finally a RGD-like peptide (Gly-Arg-Gly-Asp-Ser, GRGDS). Specifically, a thin layer of silicon oxide was deposited onto the Corning Epic™ niobium oxide waveguide surface up to 3 nm. Afterwards, the biosensor was coated with an aminopropylsilane solution of about 0.1 vol/vol %, washed and dried, followed by the interaction with an EMA solution of about 0.01 wt/vol %, and washed and dried. Finally, a GRGDS solution was applied to the EMA biosensor surface. […]

[2] = test system: intracellular protein kinase C (PKC) in Jurkat cells; test: pseudo-RACK1-induced optical signals of Jurkat cells anchored on RWG biosensor surfaces; assay type: cell-based, human
Source text: The Jurkat cells, which present antigens at the cell's surface, were contacted with four different surface types: a bare waveguide substrate having a thin layer of silicon oxide (i.e., SiOx/Nb2O5, uncoated biosensor substrate) (810), a SiOx/Nb2O5 surface having anti-human CD3 (anti-CD3) (820), a SiOx/Nb2O5 surface having amino-reactive polymer EMA coating (EMA) (830), and a SiOx/Nb2O5 surface having covalently coupled anti-human CD3 (i.e., anti-CD3-EMA) (840). The anti-CD3 surface was achieved by incubating a solution containing anti-human CD3 antibody (25 μg/ml) onto the bare SiOx/Nb2O5 surface for 1 hour, followed by washing and drying. The EMA surface was prepared as described above, i.e., by sequentially coating the bare SiOx/Nb2O5 surface with aminopropylsilane and then EMA. The anti-CD3/EMA surface was prepared by incubating anti-human CD3 (25 μg/ml) solution with the EMA surface for 1 hour, followed by blocking with ethanolamine at 1% for 1 hour. The Jurkat cells were incubated on either surface for about 2 hours before assays. The kinetic response, before and after the pseudo-RACK1 addition, was recorded in real time.
Pseudo-RACK1 is a peptide (OH-lys-lys-trp-lys-met-arg-arg-asn-gln-phe-trp-ile-lys-ile-gln-arg-cys----cys-ser-val-glu-ile-trp-asp-OH) and activates intracellular protein kinase C (PKC).

Question: With `Nc1ncnc2c1ncn2[C@@H]1O[C@H](COP(=O)(O)OP(=O)(O)OP(=O)(O)O)[C@@H](O)[C@H]1O` [ATP, adenosine triphosphate] as the molecule, how does the “ATP-induced DMR signal, average signal” value (CHO-KCNQ cells; CHO-KCNQ cells cultured on discontinuous thin film of silicon dioxide particles on waveguide (FIG. 2B)) read?
Answer: 144 pm

Question: And the “ATP-induced DMR signal, average signal” value (CHO-KCNQ cells; CHO-KCNQ cells cultured on unmodified or bare niobia waveguide surface (FIG. 2A))?
Answer: 115 pm

Question: What about the “amplitude of initial positive DMR (P-DMR) event, average signal” value ([1]; 10 micromolar ATP, HEK293 cells on low-density gelatin-coated 384-well Epic microplate, 16 wells (FIG. 6)) of the same molecule?
Answer: 193 picometers (pm)

Question: What about the “ATP-induced DMR response intensity” value ([1]; 20 micromolar ATP, HEK293 cells on GRGDS-derivatized EMA surfaces made with 10, 30, 100, 250 micromolar GRGDS (FIG. 7)) of the same molecule?
Answer: increasing response intensity

Question: And the “detection of ATP-induced DMR signals” value ([1]; HEK293 cells on low-, medium- and high-density gelatin-coated surfaces (FIG. 5))?
Answer: Only the low-density gelatin-coated surface enabled the detection

Question: With “OH-lys-lys-trp-lys-met-arg-arg-asn-gln-phe-trp-ile-lys-ile-gln-arg-cys----cys-ser-val-glu-ile-trp-asp-OH [pseudo-RACK1]” as the molecule, how does the “optical signal after stimulation” value ([2]; 9 μM, Jurkat cells on anti-CD3, EMA and anti-CD3-EMA surfaces (FIG. 8A)) read?
Answer: significant optical signals

Question: What about the “optical signal after stimulation” value ([2]; Jurkat cells on bare SiOx/Nb2O5 surface (FIG. 8A)) of the same molecule?
Answer: did not led to any detectable optical signal
